Data reported in paper PMC7940618, “Specific inhibition of the Survivin–CRM1 interaction by peptide-modified molecular tweezers” (Nature Communications, 2021).
Where “and” joins values, the source holds several entries; their conditions need not be identical. Equal values may be shown once. Read-outs that look alike come from different tables or passages of the source. Peptide text beside a SMILES is read from it.

Legend:
Format in all cases: binding
[1] = molecular target: T1, Survivin120 (Homo sapiens, UniProt O15392); assay: ITC titration of tweezers with Survivin120 wildtype; conditions: ITC, Survivin120 WT; for Kd: PBS pH 7.4, 25 °C, one set of sites model, mean ± SEM of fit
T1 construct: the only published NMR structure originated from a truncated Survivin (aa 1-120) with improved solubility; GST with PreScission site (N); made in house; host or cells: Escherichia coli soluBL21
Procedure: The interaction between the tweezers and Survivin was studied by isothermal titration calorimetry (ITC) and NMR spectroscopy. So far, the only published NMR structure originated from a truncated Survivin (aa 1-120) with improved solubility. […] Since the truncated construct still contains all relevant parts of the protein and gives excellent NMR spectra (SI5), we chose it for all our in vitro experiments and denote it as Survivin120 in the following results.
(§1) ITC was performed with a MicroCal iTC200 from Malvern Panalytical in PBS, pH 7.4 at 25 °C with molecular tweezers in the cell and Survivin120 in the titration syringe. The protein was dialyzed overnight at 4 °C against the PBS buffer. Ligands were dissolved in the respective dialysis buffer. Then, 300 µM TW were titrated with 300 µM Survivin120 WT or 321 µM Survivin120 K90/103T. Then, 100 µM TW-ELTL, TW-ELTLGEFL, or TW-LFEEGLLT was titrated with 1.2 mM Survivin120 WT or 2.5 mM Survivin120 K90/103T. For reverse titrations, either 33.3 or 34.4 µM Survivin120 in the cell was titrated with 5 mM TW or TW-ELTL in the syringe, respectively. All titrations were performed in PBS, pH 7.4 at 25 °C. Then, 1.5 μL injections were used with 120 s spacing time between injections. The injection rate was set to 0.5 µL/s and the reference power was 5 µcal/s. ITC thermograms were fitted to a one set of sites model with the software Origin (v7.0552) provided with the instrument. Heat of dilution was subtracted as constant from each data point.
(§2) ITC thermograms were fitted to a one set of sites model with the software Origin provided with the instrument. Heat of dilution was subtracted as constant from each data point. From three independent experiments (n = 3), one representative example was depicted, and thermodynamic data were derived thereof. For pull-down experiments, only the representative quantification of the depicted western blot is shown. […] Fluorescence anisotropy graphs were generated with GraphPad Prism 5.0. Depicted error bars represent the standard deviation of three independent titrations.

[2] = molecular target: T2, GST-Survivin120–CRM1 interaction (Homo sapiens, UniProt O15392); assay: Pull-down with GST-Survivin120 wildtype bait, CRM1 and RanQ69L; conditions: for CRM1: Peak area determined with ImageJ / CRM1 intensity_normalised on GST-Surv intensity (samples 1-14) / CRM1: Control w/o GST-Survivin subtracted (sample 16 or 23): CRM1 band; for CRM1: Peak area determined with ImageJ / CRM1 intensity_normalised on GST-Surv intensity (samples 1-14) / CRM1: Control w/o GST-Survivin subtracted (sample 16 or 23) / CRM1 intensity_normalised on GST-Surv intensity (samples 1-14) and CRM1 intensity w/o incubation (sample 15 or 22): samples 15-21 (WT); for CRM1: Control w/o GST-Survivin subtracted (sample 16 or 23): sample 16 subtracted; for GST-Surv: Peak area determined with ImageJ / GST-Surv: Control w/o GST-Survivin subtracted (sample 2 or 9): GST-Surv bait band; for GST-Surv: Peak area determined with ImageJ: samples 1-7 (WT according to the summary in r39-r41); for GST-Surv: Control w/o GST-Survivin subtracted (sample 2 or 9): samples 1-7 (WT), sample 2 subtracted; for Normalised CRM1 intensity, summary of replicates I and II: WT, w/o tweezer = 100, replicates I and II
T2 construct: the only published NMR structure originated from a truncated Survivin (aa 1-120) with improved solubility; made in house; host or cells: Escherichia coli soluBL21
Procedure: Next, we investigated whether tweezer inhibition of the export complex assembly is compromised upon lysine mutations near the NES. Therefore, pull-down experiments were performed with recombinant GST-tagged Survivin120 wildtype and K90/103T as bait proteins, tweezers, recombinant CRM1 and RanQ69L (Fig. 7g). Controls lacking the Survivin baits were included, as well as isolated peptides without tweezer (Fig. 7h). […] However, for the double lysine mutant GST-Survivin120-K90/103T even the tweezer conjugates lost most of their inhibitory power toward the essential Survivin–CRM1 interaction.
All pull-down assays were performed at room temperature in pull-down buffer (PBS, pH 7.4, 1 mM DTT, 0.02 Triton X-100). GST fusion proteins were immobilized on 50 μL GSH-coated Sepharose 4B beads from GE Healthcare. The beads were prior equilibrated and blocked with 500 μL pull-down blocking buffer (PBS, pH 7.4, 1 (w/v) BSA, 1 mM DTT, 0.02 (v/v) Triton X-100) for 1 h to prevent unspecific binding.
For analysis of the effective inhibitory tweezer concentration, 200 μg 293T lysate with overexpressed Survivin142-HA was preincubated without ligand or with different concentrations (10 nM to 200 μM) of unmodified tweezer TW, TW-ELTL, TW-ELTLGEFL, or TW-LFEEGLLT for 1 h and then mixed with 35 μg GST-CRM1, 55 μg RanQ69L, and 2 mM dGTP. GSH-beads were incubated with this protein mixture for 2 h under rotation. For analysis of tweezer specificity, 40 μg GST-Survivin120 or GST-Survivin120-K90/103T point mutant was pre-bound to equilibrated GSH-beads in 500 μL pull-down buffer, containing additionally either no ligand or 50 μM unmodified tweezer TW, TW-ELTL, TW-ELTLGEFL, or peptides ELTL and ELTLGEFL, for 1 h under rotation. After washing and blocking, GSH-beads were incubated with a protein mixture consisting of 2 mM dGTP, 50 μg CRM1, and 50 μg RanQ69L for 2 h under rotation.
Samples of input and beads taken during pull-down experiments were ran on 12.5 SDS gels and transferred onto 0.2 µM PVDF membranes (Amersham Hybond P 0.2) using a PerfectBlue™ tank electro blotter (Peqlab) at 350 mA for 150 min. Membranes were blocked for 1 h using 5% milk powder in TBS buffer containing 0.1% Tween-20. Next, membranes were incubated in primary antibodies against HA (anti-HA, mouse monoclonal, BioLegend, Covance MMS-101R, 1:1,000), GST (anti-GST, mouse monoclonal, Santa Cruz Biotechnology Inc., sc-57753, 1:1000) or CRM1 (anti-CRM1, rabbit polyclonal, Novus Biologicals Ltd., NB100-79802, 1:10,000) overnight at 4 °C. Secondary horseradish peroxidase (HRP)-conjugated antibody (anti-mouse IgG-HRP, sheep, GE Healthcare, NXA931 or anti-rabbit IgG-HRP, donkey, GE Healthcare, NA934) was then added (1:10,000) for 1 h at room temperature. Chemiluminescence was detected and imaged using the Pierce ECL Plus Western Blotting Substrate kit (Thermo Fisher Scientific) and Chemidoc system (Bio-Rad) or film processor Cawomat 2000 IR (CAWO). Western blots were analyzed by densitometric analysis with ImageJ version 1.52p (U.S. National Institutes of Health), measuring the mean gray intensity of protein bands. Uncropped and unprocessed scans of western blots are deposited in the Source Data file.

[3] = molecular target: T3, Survivin120 K90/103T (Homo sapiens, UniProt O15392, K103T/K90T); assay: ITC titration of tweezers with Survivin120 K90/103T mutant
T3 construct: the only published NMR structure originated from a truncated Survivin (aa 1-120) with improved solubility; GST with PreScission site (N); made in house; host or cells: Escherichia coli soluBL21
Excerpt: If the tweezer-based inhibitors indeed bind to lysines/arginines flanking the NES (K90, K91, K103, R106), their mutation to, e.g., threonine, should abolish the observed effects. For this reason, we generated double and triple Survivin120 mutants lacking these putative tweezer anchor points. Unfortunately, most double mutants and especially the triple mutants were unfolded as evidenced by 1D ^1H NMR (SI6); finally, the correctly folded double threonine mutant Survivin120 K90/103T was chosen for further investigation. […] Next, binding of FAM-labeled tweezers (SI3) to either Survivin120 wildtype or the K90/103T mutant was studied by fluorescence anisotropy (Fig. 7d–f). […] We conclude that lysines 90 and 103 are indeed essential for efficient tweezer binding.
as §1, §2

[4] = fraction of sample 15 (w/o Tweezer)

T2 sequence (O15392 1-120): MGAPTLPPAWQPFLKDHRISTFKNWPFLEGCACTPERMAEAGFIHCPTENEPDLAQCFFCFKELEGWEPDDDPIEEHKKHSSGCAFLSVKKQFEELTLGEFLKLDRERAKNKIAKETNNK
T1 sequence (O15392 1-120): as above
T3 sequence (O15392 1-120 K90T/K103T): as the sequence (O15392 1-120) above, with K90T, K103T counted along it

SMILES	-TΔS [1] [kcal]	ΔG [1] [kcal]	ΔH [1] [kcal]	Kd [1] [µM]	CRM1: Peak area determined with ImageJ [2]	CRM1 intensity_normalised on GST-Surv intensity (samples 1-14) [2]	CRM1: Control w/o GST-Survivin subtracted (sample 16 or 23) [2]	GST-Surv: Peak area determined with ImageJ [2]	GST-Surv: Control w/o GST-Survivin subtracted (sample 2 or 9) [2]	Normalised CRM1 intensity, summary of replicates I and II [2]	inhibition of the interaction between CRM1 and GST-Survivin120 ([2]; pull-down, 50 µM ligand, wildtype)	CRM1 intensity_normalised on GST-Surv intensity (samples 1-14) and CRM1 intensity w/o incubation (sample 15 or 22) [2, 4]	CRM1 intensity_normalised on GST-Surv intensity (samples 1-14) and CRM1 intensity w/o incubation (sample 15 or 22) ([2]; w/o Tweezer = 100) [%]	ΔH ([3]; ITC, Survivin120 K90/103T) [kcal]	Kd ([3]; ITC, Survivin120 K90/103T, PBS pH 7.4, 25 °C, one set of sites model, read-out: KD) [µM]	Kd [3] [µM]
O=P(O)(O)Oc1c2c(c(OP(=O)(O)O)c3c1C1CC3c3cc4c(cc31)C1CC4c3ccccc31)C1CC2c2cc3c(cc21)C1CC3c2ccccc21 [TW, reference compound]	-4.7	-6.0	-1.3	38	21154.6	0.3073	16296.9	53864.7	53029.3	86.9559% and 97.9595%	inactive	0.8696	86.9559	-0.6	49 ± 5	
CC(C)C[C@H](NC(=O)[C@H](Cc1ccccc1)NC(=O)[C@H](CCC(=O)O)NC(=O)CNC(=O)[C@H](CC(C)C)NC(=O)[C@@H](NC(=O)[C@H](CC(C)C)NC(=O)[C@H](CCC(=O)O)NC(=O)Cn1cc(CCOP(=O)(O)Oc2c3c(c(OP(=O)(O)O)c4c2C2CC4c4cc5c(cc42)C2CC5c4ccccc42)C2CC3c3cc4c(cc32)C2CC4c3ccccc32)nn1)[C@@H](C)O)C(=O)O [TW-ELTLGEFL] (HELM PEPTIDE1{[O=C(Cn1cc(CCOP(=O)(O)Oc2c3c(c(OP(=O)(O)O)c4c2C2CC4c4cc5c(cc42)C2CC5c4ccccc42)C2CC3c3cc4c(cc32)C2CC4c3ccccc32)nn1)[*:2]].E.L.T.L.G.E.F.L}$$$$V2.0)				19						18.4722% and 35.2764%			18.4722			36 ± 10
CC(C)C[C@H](NC(=O)[C@@H](NC(=O)[C@H](CC(C)C)NC(=O)[C@H](CCC(=O)O)NC(=O)Cn1cc(CCOP(=O)(O)Oc2c3c(c(OP(=O)(O)O)c4c2[C@H]2C[C@@H]4c4cc5c(cc42)[C@H]2C[C@@H]5c4ccccc42)[C@H]2C[C@@H]3c3cc4c(cc32)[C@H]2C[C@@H]4c3ccccc32)nn1)[C@@H](C)O)C(=O)O [TW-ELTL]	-3.8	-6.3	-2.5	24	4951.05	0.007388	93.343	13469.9	12634.6	2.09% and 27.3879%		0.0209	2.09	-1.3		50 ± 10
